± gives the standard deviation of the averaged measurements.
Columns and labels:
Assay in all cases: level (log10 ratio to DMSO vehicle control); higher = higher biomarker level / cell amount than vehicle control
[1] = compound: OCC(F)(F)C(F)(F)C(F)(F)C(F)F [1H,1H,5H-Perfluoropentanol] (in DMSO)
Procedure: (§1)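 BioMAP Diversity Plus panel of 12 human primary cell co-culture systems (3C, 4H, LPS, SAg, BT, BF4T, BE3C, CASM3C, HDF3CGF, KF3CT, MyoF, Mphg). Compounds were added 1 h before stimulation and left for 24 h (MyoF 48 h; BT 72 h for soluble read-outs or 6 d for IgG). Biomarkers were read by ELISA, cytotoxicity by SRB, PBMC viability and proliferation by Alamar Blue. Each well value was divided by the mean of 8 DMSO control wells on the same plate and log10 transformed; duplicate blinded samples were tested at 4 concentrations.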

[2] = compound: O=S(=O)(O)C(F)(F)C(F)(F)C(F)(F)C(F)(F)C(F)(F)C(F)(F)C(F)(F)F [Perfluoroheptanesulfonic acid] (in DMSO)
Procedure: as §1

Perfluorononanoic acid = compound: O=C(O)C(F)(F)C(F)(F)C(F)(F)C(F)(F)C(F)(F)C(F)(F)C(F)(F)C(F)(F)F [Perfluorononanoic acid] (in DMSO)
Procedure: as §1

[3] = compound: OCC(F)(F)OC(F)(F)C(F)(F)OC(F)(F)C(F)(F)OC(F)(F)CO [1H,1H,11H,11H-Perfluorotetraethylene glycol] (in DMSO)
Procedure: as §1

Octafluoroadipic acid = compound: O=C(O)C(F)(F)C(F)(F)C(F)(F)C(F)(F)C(=O)O [Octafluoroadipic acid] (in DMSO)
Procedure: as §1

[4] = compound: OCC(F)(F)C(F)(F)C(F)(F)C(F)(F)C(F)(F)C(F)(F)CO [1H,1H,8H,8H-Perfluorooctane-1,8-diol] (in DMSO)
Procedure: as §1

[5] = compound: C=C(C)C(=O)OCCC(F)(F)C(F)(F)C(F)(F)C(F)(F)C(F)(F)C(F)(F)C(F)(F)C(F)(F)F [8:2 Fluorotelomer methacrylate] (in DMSO)
Procedure: as §1

Row | Test System | level (log10) ([1]; 6700 nM) | level (log10) ([1]; 20000 nM) | level (log10) ([1]; 60000 nM) | level (log10) ([2]; 1500 nM) | level (log10) ([2]; 4400 nM) | level (log10) ([2]; 13000 nM) | level (log10) ([2]; 40000 nM) | level (log10) (Perfluorononanoic acid; 6700 nM) | level (log10) (Perfluorononanoic acid; 20000 nM) | level (log10) ([3]; 6700 nM) | level (log10) ([3]; 20000 nM) | level (log10) ([3]; 60000 nM) | level (log10) (Octafluoroadipic acid; 6700 nM) | level (log10) (Octafluoroadipic acid; 20000 nM) | level (log10) (Octafluoroadipic acid; 60000 nM) | level (log10) ([4]; 6700 nM) | level (log10) ([4]; 20000 nM) | level (log10) ([4]; 60000 nM) | level (log10) ([5]; 6700 nM) | level (log10) ([5]; 20000 nM)
1 | 3C:CCL2/MCP-1 | -0.0055 ± 0.015 | 0.03 ± 0.024 | 0.042 ± 0.045 | -0.0035 ± 0.005 | -0.0065 ± 0.0021 | 0.002 ± 0.0014 | 0.01 ± 0.0014 | -0.014 ± 0.038 | -0.0045 ± 0.016 | -0.001 ± 0.018 | -0.005 ± 0.027 | -0.015 ± 0.0057 | -0.0115 ± 0.0064 | -0.0105 ± 0.011 | 0.0135 ± 0.036 | -0.006 ± 0.0014 | -0.0175 ± 0.0092 | 0.002 ± 0.027 | 0.0115 ± 0.012 | 0.009 ± 0.0014
2 | 3C:CD54/ICAM-1 | -0.028 ± 0.0085 | -0.003 ± 0.0099 | 0.0125 ± 0.023 | 0.0085 ± 0.005 | -0.003 ± 0.0042 | -0.001 ± 0.013 | -0.0015 ± 0.0021 | -0.028 ± 0.0014 | -0.023 ± 0.0099 | 0.0015 ± 0.00071 | -0.009 ± 0.0071 | 0.007 | -0.007 ± 0.014 | -0.0075 ± 0.018 | -0.0065 ± 0.013 | 0.0045 ± 0.0035 | 0.0025 ± 0.019 | 0.0015 ± 0.022 | -0.0125 ± 0.016 | -0.0095 ± 0.025
3 | 3C:CD62E/E-Selectin | -0.018 ± 0.018 | -0.015 | 0.008 ± 0.0014 | -0.01 ± 0.021 | -0.018 | -0.024 ± 0.017 | 0.005 ± 0.0014 | -0.0195 ± 0.0078 | -0.013 ± 0.013 | -0.0145 ± 0.029 | -0.008 ± 0.038 | -0.0375 ± 0.036 | -0.029 ± 0.0071 | -0.004 ± 0.016 | -0.0205 ± 0.0078 | 0.0005 ± 0.013 | -0.007 ± 0.0085 | 0.015 ± 0.013 | -0.024 ± 0.0085 | -0.0225 ± 0.005
4 | 3C:CD106/VCAM-1 | -0.0245 ± 0.0078 | -0.012 | 0.0075 ± 0.0035 | 0.001 ± 0.0042 | -0.011 ± 0.0014 | -0.016 ± 0.0028 | -0.0185 ± 0.00071 | -0.0205 ± 0.016 | -0.0195 ± 0.023 | -0.01 ± 0.0057 | -0.015 ± 0.0071 | -0.004 ± 0.011 | 0.0005 ± 0.019 | -0.0015 ± 0.0092 | 0.0055 ± 0.00071 | -0.0205 ± 0.0021 | -0.018 ± 0.0042 | -0.007 ± 0.0057 | -0.0205 ± 0.019 | -0.0445 ± 0.015
5 | 3C:CD141/Thrombomodulin | -0.006 ± 0.011 | -0.013 ± 0.013 | 0.0195 ± 0.011 | 0.014 ± 0.013 | -0.0085 ± 0.028 | -0.035 ± 0.064 | -0.042 ± 0.028 | -0.0225 ± 0.00071 | -0.0285 ± 0.011 | -0.0145 ± 0.039 | 0.005 ± 0.028 | 0.051 ± 0.021 | 0.0125 ± 0.025 | 0.016 ± 0.03 | 0.0195 ± 0.05 | -0.015 ± 0.0057 | -0.0075 ± 0.016 | -0.001 ± 0.013 | -0.031 ± 0.055 | -0.033 ± 0.02
6 | 3C:CD142/Tissue Factor | -0.0095 ± 0.00071 | -0.014 ± 0.025 | 0.021 ± 0.0085 | 0.0375 ± 0.011 | 0.021 ± 0.031 | 0.048 ± 0.048 | 0.0665 ± 0.1 | -0.0555 ± 0.0021 | -0.0455 ± 0.032 | -0.0315 ± 0.037 | -0.009 ± 0.0014 | -0.013 ± 0.05 | 0.02 ± 0.061 | 0.0375 ± 0.067 | 0.0085 ± 0.061 | -0.0245 ± 0.026 | 0.0195 ± 0.026 | 0.0425 ± 0.012 | 0.0445 ± 0.047 | 0.0595 ± 0.022
7 | BE3C:Keratin 8/18 | -0.0225 ± 0.011 | 0.0135 ± 0.005 | 0.0035 ± 0.025 | -0.013 ± 0.035 | -0.0065 ± 0.037 | -0.015 ± 0.033 | -0.0185 ± 0.033 | -0.0335 ± 0.04 | -0.0365 ± 0.032 | 0.0025 ± 0.049 | -0.0065 ± 0.00071 | -0.023 ± 0.025 | -0.0095 ± 0.0078 | -0.0105 ± 0.025 | 0.0095 ± 0.0021 | -0.0155 ± 0.022 | -0.017 ± 0.0014 | -0.0375 ± 0.0035 | -0.0195 ± 0.037 | -0.008 ± 0.071
8 | BE3C:MMP-1 | -0.014 ± 0.011 | 0.029 ± 0.024 | 0.023 ± 0.03 | 0.011 ± 0.018 | 0.019 ± 0.023 | 0.05 ± 0.021 | 0.133 ± 0.022 | 0.05 ± 0.059 | 0.221 ± 0.035 | -0.001 ± 0.0057 | 0.022 | 0.0915 ± 0.057 | -0.0145 ± 0.025 | -0.0205 ± 0.037 | 0.0155 ± 0.0021 | 0.0125 ± 0.012 | -0.0055 ± 0.013 | 0.0425 ± 0.056 | 0.0135 ± 0.012 | -0.003 ± 0.0057
9 | BE3C:MMP-9 | -0.009 ± 0.016 | 0.0235 ± 0.018 | 0.0175 ± 0.022 | -0.0015 ± 0.032 | -0.0125 ± 0.081 | -0.025 ± 0.041 | 0.0055 ± 0.04 | -0.0075 ± 0.00071 | 0.0055 ± 0.011 | 0 ± 0.017 | -0.0345 ± 0.0021 | -0.0795 ± 0.0035 | -0.0065 ± 0.022 | -0.002 ± 0.016 | 0.0065 ± 0.0064 | -0.001 ± 0.028 | 0.0005 ± 0.016 | 0.0015 ± 0.005 | -0.0125 ± 0.06 | -0.024 ± 0.085
10 | BE3C:PAI-I | -0.043 ± 0.021 | 0.023 ± 0.048 | 0.0495 ± 0.047 | 0.016 ± 0.044 | 0.047 ± 0.057 | 0.0385 ± 0.06 | 0.033 ± 0.078 | -0.013 ± 0.042 | -0.101 ± 0.019 | 0.0145 ± 0.012 | -0.0035 ± 0.021 | -0.072 ± 0.018 | -0.0025 ± 0.005 | 0.0015 ± 0.0035 | 0.0025 ± 0.0035 | 0.025 ± 0.024 | 0.031 ± 0.0099 | 0.0325 ± 0.011 | 0.001 ± 0.041 | -0.013 ± 0.076
11 | BE3C:SRB | 0 ± 0.0014 | 0.0025 ± 0.0092 | 0.007 ± 0.011 | 0.015 ± 0.014 | -0.005 ± 0.0099 | -0.0005 ± 0.0021 | -0.0055 ± 0.0064 | -0.0015 ± 0.005 | -0.04 ± 0.0028 | -0.004 ± 0.0057 | -0.0055 ± 0.00071 | -0.0115 ± 0.00071 | 0.0035 ± 0.005 | 0.0005 ± 0.0035 | -0.0035 ± 0.0092 | -0.003 ± 0.0028 | -0.0025 ± 0.0021 | -0.0015 ± 0.0035 | -0.003 | 0.0025 ± 0.005
12 | BE3C:tPA | -0.019 ± 0.0042 | -0.022 ± 0.017 | -0.0035 ± 0.011 | 0.023 ± 0.041 | 0.0415 ± 0.073 | 0.066 ± 0.1 | 0.0595 ± 0.086 | -0.012 ± 0.0042 | -0.172 ± 0.023 | -0.0145 ± 0.035 | -0.0265 ± 0.044 | -0.008 ± 0.061 | -0.003 ± 0.0028 | 0.004 ± 0.0099 | 0.0015 ± 0.0064 | 0.0105 ± 0.016 | 0.01 ± 0.011 | 0.03 ± 0.0057 | -0.0125 ± 0.067 | -0.036 ± 0.082
13 | BE3C:uPA | -0.0105 ± 0.016 | 0.001 ± 0.011 | 0.002 ± 0.041 | -0.0055 ± 0.023 | -0.004 ± 0.034 | -0.0235 ± 0.032 | -0.018 ± 0.038 | -0.0445 ± 0.08 | -0.0195 ± 0.076 | -0.0105 ± 0.011 | 0.0055 ± 0.013 | -0.0075 ± 0.0021 | -0.002 ± 0.02 | -0.0135 ± 0.005 | -0.0005 ± 0.0021 | -0.012 ± 0.0071 | -0.0125 ± 0.005 | -0.009 ± 0.024 | -0.0145 ± 0.012 | -0.0145 ± 0.059
14 | CASM3C:CCL2/MCP-1 | -0.0115 ± 0.012 | -0.0105 ± 0.013 | -0.0015 ± 0.011 | -0.007 ± 0.088 | -0.043 ± 0.024 | -0.034 ± 0.016 | -0.021 ± 0.0028 | -0.0295 ± 0.049 | -0.0085 ± 0.054 | 0.0125 ± 0.012 | -0.007 ± 0.017 | -0.004 ± 0.017 | -0.0085 ± 0.0092 | -0.0065 ± 0.011 | 0.015 ± 0.038 | -0.0175 ± 0.011 | -0.024 ± 0.0057 | 0.0015 ± 0.019 | -0.011 ± 0.0099 | 0.0025 ± 0.037

Source: the supplement of paper PMC10331698
